# Source: patent US6534035B1, “Methods of inhibiting clot formation” (President and Fellows of Harvard College, priority 1998, dated 2003)
# Entries after “also recorded” stand apart in the source; their conditions may differ. Peptide text beside a SMILES is read from it. * marks the point of attachment. Biotin = O=C1N[C@H]2[C@H](CS[C@H]2CCCCC(=O)*)N1
# Key:
# [1] = target: T1, guinea pig tissue transglutaminase (Cavia cutleri, UniProt P08587); experiment: Crosslinking of α2AP13-24 into fibrin by tissue transglutaminase; format: biochemical; conditions: purified tissue transglutaminase (100 nM) added to FXIIIa-deficient fibrinogen
# T1 sequence (P08587 1-690): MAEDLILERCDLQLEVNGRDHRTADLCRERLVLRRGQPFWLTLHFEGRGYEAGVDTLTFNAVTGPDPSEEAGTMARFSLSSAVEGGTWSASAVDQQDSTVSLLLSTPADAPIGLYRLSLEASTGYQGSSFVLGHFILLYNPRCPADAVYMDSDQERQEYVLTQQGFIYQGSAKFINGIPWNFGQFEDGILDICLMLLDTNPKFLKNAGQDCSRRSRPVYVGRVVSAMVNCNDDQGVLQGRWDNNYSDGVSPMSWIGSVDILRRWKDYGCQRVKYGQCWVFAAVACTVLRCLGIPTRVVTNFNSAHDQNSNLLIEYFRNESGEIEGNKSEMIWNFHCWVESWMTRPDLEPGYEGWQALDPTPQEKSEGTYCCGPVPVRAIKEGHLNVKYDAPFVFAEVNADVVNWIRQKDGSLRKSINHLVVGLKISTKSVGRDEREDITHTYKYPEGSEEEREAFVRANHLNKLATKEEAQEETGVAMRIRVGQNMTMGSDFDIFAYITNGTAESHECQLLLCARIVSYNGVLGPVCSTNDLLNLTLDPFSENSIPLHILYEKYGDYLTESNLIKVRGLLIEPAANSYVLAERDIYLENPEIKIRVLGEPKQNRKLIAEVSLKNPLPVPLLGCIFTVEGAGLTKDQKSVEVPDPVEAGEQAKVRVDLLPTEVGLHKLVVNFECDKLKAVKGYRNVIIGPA
# Method: Fibrin clots (50 μl) were prepared in duplicate by mixing FXIII-free fibrinogen (2 mg/ml final), α2AP13-24 (SEQ ID NO:2; 0.5 mM final), CaCl2 (2 mM final), human plasma FXIII (100 nM/L final) and guinea pig tissue transglutaminase (100 nM/L final) and thrombin (1 U/ml final) and incubating at 37° C. for 2 hours. The crosslinking of α2AP13-24 was detected as described above.
# pulmonary emboli = experiment: Crosslinking of α2AP13-24 into pulmonary emboli in vivo; design: species or system ferret; conditions: 0.5 mM dose of biotinylated peptide after embolization, 4 hours
# Method: To examine whether FXIIIa which formed thrombi in vivo retained the ability to crosslink substrates, the ferret pulmonary embolism model was used. Clots were formed by combining 45 μl of pooled human fresh frozen plasma with ^125I-labeled fibrinogen (˜100,000 cpm/clot), 2.5 μl of 0.4 M CaCl2, and 2.5 μl thrombin (1000 U/ml). The clots were incubated at 37° C. for 20 minutes, washed three times in saline, and 6 were embolized into the lungs of each animal. Three experimental groups were examined with 2 animals in each group. One group received normal clots and a solution of α2AP13-24 (SEQ ID NO:2) calculated to produce a final peptide concentration of 0.5 mM. Another group also received the same peptide concentration; prior to embolization, the clots in this group were washed in iodoacetamide (10 mg/ml) and EDTA (10 mM final) to inhibit clot associated FXIIIa. The third group received the blood clots but no peptide infusion afterward. Four hours after embolization, the ferrets were sacrificed by CO2 inhalation. The heart, lungs, and great vessels were removed and gamma-counted to locate the pulmonary emboli.
# Lung tissue containing pulmonary emboli was localized with a Geiger counter, excised and weighed. […]
smiles,measurement,setting,value
"CC(C)C[C@H](NC(=O)[C@H](CC(C)C)NC(=O)[C@@H](NC(=O)[C@H](CC(C)C)NC(=O)[C@@H]1CCCN1C(=O)[C@H](CO)NC(=O)[C@@H](NC(=O)[C@H](CCC(N)=O)NC(=O)[C@H](CCC(=O)O)NC(=O)[C@H](CCC(N)=O)NC(=O)[C@@H](N)CC(N)=O)C(C)C)[C@@H](C)O)C(=O)N[C@@H](CCCCNC(=O)CCCC[C@@H]1SC[C@@H]2NC(=O)N[C@@H]21)C(=O)O [α2AP13-24, NQEQVSPLTLLK] (H-NQEQVSPLTLLK(Biotin)-OH)",crosslinking of peptide to fibrin,[1],slight increase in crosslinking
same,incorporation of peptide into existing pulmonary emboli,pulmonary emboli,specific staining was detected in the thrombus; also recorded: covalently incorporated
